Like-named read-outs stand apart in the source and are kept apart here.
Assays:
[1] = Pharmacokinetic study in rat; type: in vivo, Sprague-Dawley rat
Method: In the IV bolus study, 1 mg/kg doses prepared in 0.4% HPBCD in saline were administered via foot dorsal vein injection. At each timepoint, 150 μL of blood was collected via tail vein into EDTA-K2 tubes. The blood samples were maintained in wet ice initially and centrifuged to obtain plasma (2000 g, 4° C., 5 minutes) within 15 minutes post sampling. In the PO study, doses prepared in 10% Ethanol:5% Solutol HS15:85% (5% of dextrose in water) were administered by oral gavage. Samples were collected as described above. In the IV infusion study, doses were prepared in 10% PEG400 in 0.9% saline and administered into the femoral vein, at a dose of 4.7 mg/kg/day for 7 days. 500 μL of blood was collected by jugular venipuncture at timepoints over 7 days and placed on crushed wet ice until centrifugation, which was carried out as soon as practical. The samples were centrifuged for 10 minutes at 4° C. at 2700 rpm. The resultant plasma was separated and frozen immediately over dry ice for LC-MS/MS analysis. […] Typically, samples were injected onto an LC-MS/MS system using a Waters BEH Phenyl column. The aqueous mobile phase was water with 0.1% NH4OH (A), and the organic mobile phase was acetonitrile with 0.1% NH4OH (B). The gradient was as follows: 37% B for the first 0.2 min, increased to 44% B from 0.2 to 0.6 min, maintained at 44% B for 0.5 min, and decreased to 37% B within 0.05 min. The injection volume was 2 uL, and the total run time was 1.5 min with a flow rate of 0.6 mL/min. […] The ionization was conducted in the positive ion mode using the MRM transition [M+H]+m/z 563.5 parent ion to m/z 326.3 daughter ion, incorporating a turbo-ionspray interface. Eight to ten calibration standards were prepared in blank plasma of the relevant species providing a typical standard curve concentration range of 5-500 ng/mL. Pharmacokinetic parameters were calculated by noncompartmental methods using WinNonlin (version 5.3; Pharsight, St. Louis, Mo.). Parameters are presented as mean±S.D.

[2] = Plasma protein binding by equilibrium dialysis, human; type: in vitro ADME; details: both sexes, pH 7.4, read-out: Plasma free fraction
Method: Plasma protein binding was assessed by equilibrium dialysis, utilizing the HT-dialysis cell format with a cellulose semi permeable membrane (molecular weight cut off of 5000 Da). Plasma was warmed to 37° C. and adjusted to pH 7.4 before use. Male Sprague-Dawley rat, male Beagle dog, male CD-1 mouse and mixed sex human plasma was used for the studies. A 5 μM test compound solution was prepared in isotonic phosphate buffer and rat, dog, mouse and human plasma (final DMSO concentration of 0.5%). The plasma-containing solution was introduced to one side of the membrane, and the plasma-free on the other. Incubations were performed for 2-16 hours in duplicate in order to allow the compound to reach equilibrium. Haloperidol was included as the control compound for each species. At the end of the equilibration time the cells were emptied. Following protein precipitation, the samples were centrifuged and analyzed by LC-MS/MS. The samples from the protein containing compartment were quantified using calibration standards prepared in plasma and the protein free compartments were quantified using calibration standards prepared in dialysis buffer.

[3] = Plasma stability, mouse; type: in vitro ADME, CD-1 mouse; details: CD-1, pooled plasma, 37° C., read-out: Half-life in ex vivo blood plasma
Source text: Samples were quenched in methanol and analyzed by LC-MS/MS analysis.

[4] = MDCK cell permeability, native cells; type: in vitro ADME; details: dog, Basolateral-to-apical
Method: (§1) Samples were taken from the donor and receiver chambers at 120 minutes. Each determination was performed in duplicate. Co-dosed lucifer yellow flux was also measured for each monolayer to ensure cell monolayers remained intact during the incubation. All samples were assayed by LC-MS/MS.

[5] = test system: MDR1-MDCK (P-glycoprotein) cells; experiment: MDCK cell permeability, MDR1-transfected cells; type: in vitro ADME, dog; details: from relative efflux ratio, transfected vs native cells
Method: as §1

[6] = test system: P-glycoprotein (MDR1); experiment: MDCK cell permeability, MDR1-transfected cells; type: in vitro ADME, dog; details: dog, 10 uM
Method: as §1

[7] = Metabolite profiling in liver microsomes with NADPH and UDPGA, human; type: in vitro ADME; details: Compound A 10 μM, 20 min
Method: Compound A was incubated with liver microsomes of various species (mouse, rat, dog or human). […] For all liver microsomal incubations, samples were taken at 0 and 20 minutes. All samples were quenched by using acetonitrile/methanol solution and analyzed using an LC-MS/MS Q-Trap system (AB Sciex, Framingham, Mass.).
The corresponding product ion tandem mass spectra of Compound A and its metabolites were obtained by using enhanced product ion (EPI) scans during positive ion electrospray. The possible chemical structures of the metabolites were deduced based on their MS1 and MS2 spectra.

[8] = male, Sprague-Dawley, plasma, SD rat, IV bolus, 1 mg/kg
[9] = male, Sprague-Dawley, plasma, SD rat, IV infusion, 4.7 mg/kg/day for 7 days
[10] = male, Sprague-Dawley, plasma, SD rat, PO, 10 mg/kg

With `CC(C)N(C[C@H]1O[C@@H](n2cnc3c(N)ncnc32)[C@H](O)[C@@H]1O)[C@H]1C[C@@H](CCc2nc3cc(C(C)(C)C)ccc3[nH]2)C1` [Compound A, (2R,3R,4S,5R)-2-(6-amino-9H-purin-9-yl)-5-((((1r,3S)-3-(2-(5-(tert-butyl)-1H-benzo[d]imidazol-2-yl)ethyl)cyclobutyl)(isopropyl)amino)methyl)tetrahydrofuran-3,4-diol] the CL ([1]; SD rat, IV bolus, 1 mg/kg) was 67.8 ± 5.3 mL/min/kg, the t1/2 ([1]; SD rat, IV bolus, 1 mg/kg) was 3.73 ± 1.03 h and the “time to steady state” value ([1]; SD rat, IV infusion, 4.7 mg/kg/day) was at most 1 h. It also gave an F ([1]; SD rat, PO, 10 mg/kg) of under 1%, an AUC(0-inf) [1, 8] of 0.44 ± 0.03 µM·h and an AUC(0-t) [1, 8] of 0.43 ± 0.03 µM·h. The Cmax [1, 8] was 2040 ± 230 nM, the MRT [1, 8] was 0.41 ± 0.1 h and the Tmax [1, 8] was 0.05 h. The AUC(0-inf) [1, 9] was 12.5 µM·h, the AUC(0-t) [1, 9] was 12.5 µM·h and the Cmax [1, 9] was 130 nM. For the same molecule, the Tmax [1, 9] was 4 h, the concentration at 7 days ([1]; male, Sprague-Dawley, plasma, SD rat, IV infusion, 4.7 mg/kg/day for 7 days, read-out: average steady state concentration) was 78 nM and the Cmax [1, 10] was 0.7 nM. The Tmax [1, 10] was 0.25 h, the half-life ([1]; male, Sprague-Dawley, rat, plasma, iv, 1 mg/kg, SD rat, IV bolus) was 3.7 h and the clearance ([1]; male, Sprague-Dawley, rat, plasma, iv, 1 mg/kg, SD rat, IV bolus, 1 mg/kg, read-out: CL) was 68 mL/min/kg. For the same molecule, the Vd ([1]; male, Sprague-Dawley, rat, plasma, iv, 1 mg/kg, SD rat, IV bolus, 1 mg/kg, read-out: VDss) was 1.66 L/kg, the Vd ([1]; male, Sprague-Dawley, rat, plasma, iv, 1 mg/kg, rat, read-out: Unbound VDss) was 6.1 L/kg and the clearance ([1]; male, Sprague-Dawley, rat, plasma, iv, 4.7 mg/kg/day, SD rat, IV infusion, 4.7 mg/kg/day, Css 78 nM, read-out: CL estimate from IV infusion (dose rate divided by Css)) was 74 mL/min/kg. The “oral bioavailability (in words)” value ([1]; rat, PO) was “low and negligible”, the fraction unbound at 5 μM [2] was 0.125 and the half-life at 1 μM [3] was over 2 h. The Papp B→A at 120 min, 10 uM [4] was 0.3 ×10⁻⁶ cm/s, the “P-gp substrate (in words)” value [5] was “not a substrate for P-gp” and the Papp A→B at 120 min, 10 uM ([6]; MDCK-MDR1, MDCK - MDR1 transfected, Apical-to-basolateral) was under 0.1 ×10⁻⁶ cm/s. The Papp B→A at 120 min, 10 uM ([6]; MDCK - MDR1 transfected, Basolateral-to-apical) was 0.22 ×10⁻⁶ cm/s and the “Abundance based on UV spectra” value [7] was 59%.

Source: US20160368943A1, “SUBSTITUTED PURINE COMPOUNDS” (EPIZYME, INC., priority 2013, published 2016)
